Experimental data: the supplement of paper PMC10307832

What was measured:
Experiment in all cases: relative viability (nuclei count vs DMSO), 5 days (fraction); higher = more cells survive
SK-MES-1 = test system: SK-MES-1
Method in brief: (§1)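 Lung cancer cell lines were seeded in 1536-well plates and dosed by pin tool the next day, with either a single drug or a fixed anchor-drug dose combined with five library-drug doses (not always all listed) spaced in √10 steps. Five days later, one step fixed the cells and stained their nuclei (final 0.05% Triton X-100, 1% formaldehyde, 1 ug/ml Hoechst), and nuclei were counted on 4× images. Relative viability is the nuclei count in treated wells divided by the count in vehicle wells, and each value is the median of duplicate plates.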

COR-L23 = test system: COR-L23
Method in brief: as §1

SW 1573 = test system: SW 1573
Method in brief: as §1

SK-LU-1 = test system: SK-LU-1
Method in brief: as §1

NCI-H3122 = test system: NCI-H3122
Method in brief: as §1

NCI-H1793 = test system: NCI-H1793
Method in brief: as §1

ABC-1 = test system: ABC-1
Method in brief: as §1

HOP-62 = test system: HOP-62
Method in brief: as §1

NCI-H1993 = test system: NCI-H1993
Method in brief: as §1

SW 900 = test system: SW 900
Method in brief: as §1

LK-2 = test system: LK-2
Method in brief: as §1

NCI-H2170 = test system: NCI-H2170
Method in brief: as §1

NCI-H2009 = test system: NCI-H2009
Method in brief: as §1

PC-3 [JPC-3] = test system: PC-3 [JPC-3]
Method in brief: as §1

NCI-H1792 = test system: NCI-H1792
Method in brief: as §1

A-427 = test system: A-427
Method in brief: as §1

NCI-H2228 = test system: NCI-H2228
Method in brief: as §1

LXF-289 = test system: LXF-289
Method in brief: as §1

HARA = test system: HARA
Method in brief: as §1

NCI-H596 = test system: NCI-H596
Method in brief: as §1

NCI-H727 = test system: NCI-H727
Method in brief: as §1

NCI-H1944 = test system: NCI-H1944
Method in brief: as §1

EMC-BAC-2 = test system: EMC-BAC-2
Method in brief: as §1

Q: How did the relative viability (SK-MES-1; first compound 0.005 µM) turn out when CC1(C)CCC(c2ccc(Cl)cc2)=C(CN2CCN(c3ccc(C(=O)NS(=O)(=O)c4ccc(N[C@H](CCN5CCOCC5)CSc5ccccc5)c(S(=O)(=O)C(F)(F)F)c4)cc3)CC2)C1 [Navitoclax] + CCNC(=O)c1noc(-c2cc(C(C)C)c(O)cc2O)c1-c1ccc(CN2CCOCC2)cc1 [Luminespib] (partner 0.01 µM) was run?
A: 0.665

Q: What about the relative viability (SK-MES-1; first compound 0.01581 µM) of the same molecule?
A: 0.985

Q: What about the relative viability (SK-MES-1; first compound 0.05 µM) of the same molecule?
A: 0.959

Q: What about the relative viability (SK-MES-1; first compound 0.1581 µM) of the same molecule?
A: 0.743

Q: And the relative viability (SK-MES-1; first compound 0.5 µM)?
A: 0.856

Q: What about the relative viability (COR-L23; first compound 0.005 µM) of the same molecule?
A: 0.605

Q: And the relative viability (COR-L23; first compound 0.01581 µM)?
A: 0.606

Q: And the relative viability (COR-L23; first compound 0.05 µM)?
A: 0.738

Q: What about the relative viability (COR-L23; first compound 0.1581 µM) of the same molecule?
A: 0.595

Q: What about the relative viability (COR-L23; first compound 0.5 µM) of the same molecule?
A: 0.666

Q: What about the relative viability (SW 1573; first compound 0.005 µM) of the same molecule?
A: 0.145

Q: What about the relative viability (SW 1573; first compound 0.01581 µM) of the same molecule?
A: 0.213

Q: What about the relative viability (SW 1573; first compound 0.05 µM) of the same molecule?
A: 0.429

Q: And the relative viability (SW 1573; first compound 0.1581 µM)?
A: 0.212

Q: And the relative viability (SW 1573; first compound 0.5 µM)?
A: 0.206

Q: And the relative viability (SK-LU-1; first compound 0.005 µM)?
A: 0.205

Q: What about the relative viability (SK-LU-1; first compound 0.01581 µM) of the same molecule?
A: 0.179

Q: And the relative viability (SK-LU-1; first compound 0.05 µM)?
A: 0.199

Q: What about the relative viability (SK-LU-1; first compound 0.1581 µM) of the same molecule?
A: 0.199

Q: And the relative viability (SK-LU-1; first compound 0.5 µM)?
A: 0.201

Q: And the relative viability (NCI-H3122; first compound 0.005 µM)?
A: 0.09

Q: What about the relative viability (NCI-H3122; first compound 0.01581 µM) of the same molecule?
A: 0.0825

Q: What about the relative viability (NCI-H3122; first compound 0.05 µM) of the same molecule?
A: 0.11

Q: And the relative viability (NCI-H3122; first compound 0.1581 µM)?
A: 0.083

Q: What about the relative viability (NCI-H3122; first compound 0.5 µM) of the same molecule?
A: 0.0991

Q: And the relative viability (NCI-H1793; first compound 0.005 µM)?
A: 0.262

Q: And the relative viability (NCI-H1793; first compound 0.01581 µM)?
A: 0.177

Q: What about the relative viability (NCI-H1793; first compound 0.1581 µM) of the same molecule?
A: 0.216

Q: What about the relative viability (NCI-H1793; first compound 0.5 µM) of the same molecule?
A: 0.17

Q: And the relative viability (ABC-1; first compound 0.005 µM)?
A: 0.596

Q: What about the relative viability (ABC-1; first compound 0.01581 µM) of the same molecule?
A: 0.909

Q: What about the relative viability (ABC-1; first compound 0.05 µM) of the same molecule?
A: 0.677

Q: What about the relative viability (ABC-1; first compound 0.5 µM) of the same molecule?
A: 0.6

Q: And the relative viability (HOP-62; first compound 0.005 µM)?
A: 0.913

Q: And the relative viability (HOP-62; first compound 0.01581 µM)?
A: 0.937

Q: And the relative viability (HOP-62; first compound 0.05 µM)?
A: 0.895

Q: What about the relative viability (HOP-62; first compound 0.1581 µM) of the same molecule?
A: 0.894

Q: And the relative viability (HOP-62; first compound 0.5 µM)?
A: 0.993

Q: And the relative viability (NCI-H1993; first compound 0.005 µM)?
A: 0.813

Q: And the relative viability (NCI-H1993; first compound 0.01581 µM)?
A: 0.891

Q: What about the relative viability (NCI-H1993; first compound 0.05 µM) of the same molecule?
A: 0.824

Q: And the relative viability (NCI-H1993; first compound 0.1581 µM)?
A: 0.913

Q: And the relative viability (NCI-H1993; first compound 0.5 µM)?
A: 0.803

Q: What about the relative viability (SW 900; first compound 0.005 µM) of the same molecule?
A: 0.146

Q: What about the relative viability (SW 900; first compound 0.01581 µM) of the same molecule?
A: 0.163

Q: What about the relative viability (SW 900; first compound 0.05 µM) of the same molecule?
A: 0.177

Q: And the relative viability (SW 900; first compound 0.1581 µM)?
A: 0.199

Q: What about the relative viability (SW 900; first compound 0.5 µM) of the same molecule?
A: 0.132

Q: And the relative viability (LK-2; first compound 0.005 µM)?
A: 0.204

Q: And the relative viability (LK-2; first compound 0.01581 µM)?
A: 0.191

Q: And the relative viability (LK-2; first compound 0.05 µM)?
A: 0.202

Q: And the relative viability (LK-2; first compound 0.1581 µM)?
A: 0.191

Q: And the relative viability (LK-2; first compound 0.5 µM)?
A: 0.195

Q: And the relative viability (NCI-H2170; first compound 0.005 µM)?
A: 0.519

Q: And the relative viability (NCI-H2170; first compound 0.01581 µM)?
A: 0.806

Q: What about the relative viability (NCI-H2170; first compound 0.05 µM) of the same molecule?
A: 0.552

Q: And the relative viability (NCI-H2170; first compound 0.1581 µM)?
A: 0.67

Q: And the relative viability (NCI-H2170; first compound 0.5 µM)?
A: 0.538

Q: What about the relative viability (NCI-H2009; first compound 0.005 µM) of the same molecule?
A: 1.04

Q: What about the relative viability (NCI-H2009; first compound 0.01581 µM) of the same molecule?
A: 1.1

Q: And the relative viability (NCI-H2009; first compound 0.05 µM)?
A: 1.02

Q: And the relative viability (NCI-H2009; first compound 0.1581 µM)?
A: 1.07

Q: And the relative viability (NCI-H2009; first compound 0.5 µM)?
A: 1.04

Q: What about the relative viability (PC-3 [JPC-3]; first compound 0.005 µM) of the same molecule?
A: 0.738

Q: What about the relative viability (PC-3 [JPC-3]; first compound 0.01581 µM) of the same molecule?
A: 0.807

Q: And the relative viability (PC-3 [JPC-3]; first compound 0.05 µM)?
A: 0.765

Q: What about the relative viability (PC-3 [JPC-3]; first compound 0.1581 µM) of the same molecule?
A: 0.684

Q: And the relative viability (PC-3 [JPC-3]; first compound 0.5 µM)?
A: 0.724

Q: What about the relative viability (NCI-H1792; first compound 0.005 µM) of the same molecule?
A: 0.456

Q: And the relative viability (NCI-H1792; first compound 0.01581 µM)?
A: 0.685

Q: What about the relative viability (NCI-H1792; first compound 0.05 µM) of the same molecule?
A: 0.351

Q: And the relative viability (NCI-H1792; first compound 0.5 µM)?
A: 0.527

Q: And the relative viability (A-427; first compound 0.005 µM)?
A: 0.902

Q: What about the relative viability (A-427; first compound 0.01581 µM) of the same molecule?
A: 0.833

Q: What about the relative viability (A-427; first compound 0.05 µM) of the same molecule?
A: 0.804

Q: What about the relative viability (A-427; first compound 0.1581 µM) of the same molecule?
A: 0.908

Q: And the relative viability (A-427; first compound 0.5 µM)?
A: 0.948

Q: And the relative viability (NCI-H2228; first compound 0.005 µM)?
A: 0.148

Q: What about the relative viability (NCI-H2228; first compound 0.01581 µM) of the same molecule?
A: 0.148

Q: What about the relative viability (NCI-H2228; first compound 0.1581 µM) of the same molecule?
A: 0.146

Q: What about the relative viability (NCI-H2228; first compound 0.5 µM) of the same molecule?
A: 0.142

Q: What about the relative viability (LXF-289; first compound 0.005 µM) of the same molecule?
A: 0.631

Q: And the relative viability (LXF-289; first compound 0.01581 µM)?
A: 0.754

Q: What about the relative viability (LXF-289; first compound 0.05 µM) of the same molecule?
A: 0.725

Q: What about the relative viability (LXF-289; first compound 0.1581 µM) of the same molecule?
A: 0.584

Q: And the relative viability (LXF-289; first compound 0.5 µM)?
A: 0.636

Q: And the relative viability (HARA; first compound 0.005 µM)?
A: 0.941

Q: And the relative viability (HARA; first compound 0.01581 µM)?
A: 0.678

Q: And the relative viability (HARA; first compound 0.1581 µM)?
A: 0.562

Q: And the relative viability (HARA; first compound 0.5 µM)?
A: 0.682

Q: And the relative viability (NCI-H596; first compound 0.005 µM)?
A: 0.34

Q: What about the relative viability (NCI-H596; first compound 0.01581 µM) of the same molecule?
A: 1.14

Q: What about the relative viability (NCI-H596; first compound 0.1581 µM) of the same molecule?
A: 0.867

Q: And the relative viability (NCI-H596; first compound 0.5 µM)?
A: 0.443

Q: What about the relative viability (NCI-H727; first compound 0.01581 µM) of the same molecule?
A: 0.347

Q: And the relative viability (NCI-H727; first compound 0.1581 µM)?
A: 0.275

Q: And the relative viability (NCI-H727; first compound 0.5 µM)?
A: 0.28

Q: And the relative viability (NCI-H1944; first compound 0.005 µM)?
A: 0.731

Q: And the relative viability (NCI-H1944; first compound 0.01581 µM)?
A: 0.717

Q: What about the relative viability (NCI-H1944; first compound 0.05 µM) of the same molecule?
A: 0.553

Q: And the relative viability (NCI-H1944; first compound 0.1581 µM)?
A: 0.733

Q: And the relative viability (NCI-H1944; first compound 0.5 µM)?
A: 0.665

Q: And the relative viability (EMC-BAC-2; first compound 0.005 µM)?
A: 1.09

Q: And the relative viability (EMC-BAC-2; first compound 0.01581 µM)?
A: 1.24

Q: And the relative viability (EMC-BAC-2; first compound 0.05 µM)?
A: 1.08

Q: And the relative viability (EMC-BAC-2; first compound 0.1581 µM)?
A: 1.13

Q: What about the relative viability (EMC-BAC-2; first compound 0.5 µM) of the same molecule?
A: 1.12
